Measured values reported in ChEMBL document CHEMBL1201862, “PubChem BioAssay data set” (2004).
Calls of active or inactive are those of the source. For most assays here, no stated cut-off is given here; in the data, actives have a measured EC50 and inactives only a lower limit.

How the values were obtained:
[1] = target: T1, High affinity choline transporter 1 (Homo sapiens, UniProt Q9GZV3); experiment: human choline transporter blockers, potency – cell-based, 5-point CRC, membrane potential dye, dose response (AID 504840); format: functional
T1 sequence (Q9GZV3 whole entry): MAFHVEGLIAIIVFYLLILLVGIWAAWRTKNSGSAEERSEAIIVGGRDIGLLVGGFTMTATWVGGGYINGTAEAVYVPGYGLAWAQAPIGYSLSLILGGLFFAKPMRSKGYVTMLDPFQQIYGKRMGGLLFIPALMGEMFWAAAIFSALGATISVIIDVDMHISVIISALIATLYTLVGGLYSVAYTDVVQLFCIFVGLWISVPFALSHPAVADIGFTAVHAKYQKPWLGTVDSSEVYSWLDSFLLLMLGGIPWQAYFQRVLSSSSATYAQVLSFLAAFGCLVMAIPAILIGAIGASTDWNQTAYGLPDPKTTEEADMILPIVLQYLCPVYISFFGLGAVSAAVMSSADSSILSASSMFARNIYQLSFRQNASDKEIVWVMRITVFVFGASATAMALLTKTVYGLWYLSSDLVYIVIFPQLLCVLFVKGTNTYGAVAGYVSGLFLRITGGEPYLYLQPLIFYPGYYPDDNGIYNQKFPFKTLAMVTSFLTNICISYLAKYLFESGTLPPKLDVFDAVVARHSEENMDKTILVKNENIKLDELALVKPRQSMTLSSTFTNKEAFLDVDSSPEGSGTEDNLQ

[2] = luciferase reporter signal suppression in cells – H4 neuroglioma cells, luminescence, dose response (AID 1990); format: functional, cell-based
[3] = Luminescence Cell-Based Dose Response HTS to Identify Inhibitors of 5'UTR Stem-Loop Driven Prion Protein mRNA Translation in H4 Neuroglioblastoma Cells. [Related pubchem assays: 1827 (Project Summary), 1813 (Primary HTS)]; format: functional
[4] = alpha-synuclein stem-loop luciferase translation blockers – H4 neuroglioma cells, luminescence, confirmation (AID 1988); format: functional, cell-based
cells [5] = format: functional, cell-based
cells [6] = format: functional, cell-based; remark: listed apart in the source
[7] = target: T2, RNA-binding protein pos-1 (Caenorhabditis elegans, UniProt G5EF15); experiment: disruptors of C. elegans POS-1 RNA interaction – biochemical, fluorescence polarization, dose response (AID 1964);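 further: purified POS-1 fused to maltose binding protein made in E. coli; potency of compounds blocking POS-1 binding to fluorescent RNA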
T2 sequence (G5EF15 whole entry): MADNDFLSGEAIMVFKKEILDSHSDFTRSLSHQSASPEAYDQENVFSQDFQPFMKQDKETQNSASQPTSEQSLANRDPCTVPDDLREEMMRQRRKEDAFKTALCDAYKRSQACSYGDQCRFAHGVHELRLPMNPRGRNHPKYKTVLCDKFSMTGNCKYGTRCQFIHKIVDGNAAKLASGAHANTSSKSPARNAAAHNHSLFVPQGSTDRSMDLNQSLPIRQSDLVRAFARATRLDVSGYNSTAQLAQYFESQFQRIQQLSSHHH

[8] = target: T3, Zinc finger protein mex-5 (Caenorhabditis elegans, UniProt Q9XUB2); experiment: potency of MEX-5 RNA-binding blockers – biochemical, C. elegans, fluorescence polarization, dose response (AID 1960)
T3 sequence (Q9XUB2 whole entry): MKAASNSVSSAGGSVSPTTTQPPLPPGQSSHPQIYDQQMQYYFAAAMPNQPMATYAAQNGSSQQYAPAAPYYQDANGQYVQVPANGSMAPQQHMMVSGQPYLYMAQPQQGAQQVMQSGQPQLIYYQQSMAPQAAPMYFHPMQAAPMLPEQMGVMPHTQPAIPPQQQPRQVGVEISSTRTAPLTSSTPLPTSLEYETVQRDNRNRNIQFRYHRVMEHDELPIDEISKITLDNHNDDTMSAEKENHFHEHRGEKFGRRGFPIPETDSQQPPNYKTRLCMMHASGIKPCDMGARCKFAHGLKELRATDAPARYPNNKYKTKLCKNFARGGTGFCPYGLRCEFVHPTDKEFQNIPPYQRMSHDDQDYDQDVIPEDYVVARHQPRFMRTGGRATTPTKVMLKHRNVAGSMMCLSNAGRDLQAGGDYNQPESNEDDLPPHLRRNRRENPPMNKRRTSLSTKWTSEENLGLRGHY

[9] = Luminescence Cell-Based Dose Retest to Confirm Inhibitors of Cancer Stem Cells. [Related pubchem assays (depositor defined):AID2717, AID2721]; format: functional; conditions: Homo sapiens
Cytochrome P450 1A2 = target: T4, Cytochrome P450 1A2 (Homo sapiens, UniProt P05177);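 further: PubChem cytochrome P450 panel assay, CYP1A2 panel member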
T4 sequence (P05177 whole entry): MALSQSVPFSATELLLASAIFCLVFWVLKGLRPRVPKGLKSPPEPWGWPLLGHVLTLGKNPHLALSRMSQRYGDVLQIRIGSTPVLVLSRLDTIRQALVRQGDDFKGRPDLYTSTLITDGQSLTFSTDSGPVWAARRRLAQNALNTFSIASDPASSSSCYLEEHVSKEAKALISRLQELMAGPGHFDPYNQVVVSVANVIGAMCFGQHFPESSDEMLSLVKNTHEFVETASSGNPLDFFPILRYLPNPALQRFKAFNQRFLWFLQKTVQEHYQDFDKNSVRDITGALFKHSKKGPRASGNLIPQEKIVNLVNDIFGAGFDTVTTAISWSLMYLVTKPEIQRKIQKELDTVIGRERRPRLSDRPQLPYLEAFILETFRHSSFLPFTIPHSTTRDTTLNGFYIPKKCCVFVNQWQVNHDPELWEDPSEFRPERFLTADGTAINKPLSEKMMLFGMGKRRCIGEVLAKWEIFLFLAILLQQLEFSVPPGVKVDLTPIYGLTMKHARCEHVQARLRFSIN

In the case of `Cc1ccccc1NC(=O)c1ccc(F)c(S(=O)(=O)NCC2CCCO2)c1` (stereo unspecified), the IC50 [1] is reported as 12.3 µM (active).
In the case of `O=C(Nc1ccccc1Cl)N1CCN(c2ccc3nnc(-c4ccc(F)cc4)n3n2)CC1`, the EC50 [2] is reported as 13.4 µM (active), the EC50 [3] is reported as 15.2 µM (active) and the EC50 [4] is reported as > 120 µM (not active).
In the case of `COc1ccc(N2CCN(C(=O)COc3ccc4c(C)c(C)c(=O)oc4c3C)CC2)cc1`, the EC50 (cells [5]) is reported as > 350 µM (not active) and the EC50 (cells [6]) is reported as > 350 µM (not active).
With `COC(=O)c1cccc(-n2c(CCC(=O)O)ccc2-c2cccs2)c1` the EC50 [7] was > 300 µM (not active) and the EC50 [8] was > 300 µM (not active).
For `CC(C)(C)c1ccc(/C=C2\Oc3cc(O)ccc3C2=O)cc1`, the EC50 [7] was 31.4 µM (active) and the EC50 [8] was 28.8 µM (active).
With `Cc1cc(C(=O)Nc2ccc3c(c2)OCCO3)ccc1[N+](=O)[O-]` the EC50 [3] was 13.7 µM (active).
In the case of `FC(F)(F)c1ccc2c(c1)C1C=CCC1C(c1ccncc1)N2` (stereo unspecified), the EC50 [7] is reported as > 300 µM (not active) and the EC50 [8] is reported as > 300 µM (not active).
In the case of `COc1cc(-c2noc(C)c2C#Cc2ccccn2)cc(OC)c1OC`, the EC50 [2] is reported as 9.32 µM (active), the EC50 [3] is reported as > 120 µM (not active) and the EC50 [4] is reported as 0.25 µM (active). The AC50 [9] was 0.394 µM (active).
In the case of `COc1ccc2c(c1)CCc1cc(C(=O)N3CCN(c4ccc(N5CCOCC5)nn4)CC3)sc1-2`, the EC50 [2] is reported as 13.6 µM (active), the EC50 [3] is reported as > 120 µM (not active) and the EC50 [4] is reported as > 120 µM (not active).
In the case of `COc1ccc(-c2cc3nc(C)c(CCC(=O)NC(C)CCc4ccco4)c(C)n3n2)c(OC)c1` (stereo unspecified), the EC50 [2] is reported as > 120 µM (not active), the EC50 [3] is reported as > 120 µM (not active) and the EC50 [4] is reported as > 120 µM (not active).
With `O=S(=O)(NCc1csc(-c2cccs2)n1)c1cccc(C(F)(F)F)c1` the IC50 [1] was 14.5 µM (active).
For `O=C(O)c1cccnc1SCc1ccccc1Cl`, the EC50 (cells [5]) was > 350 µM (not active) and the EC50 (cells [6]) was > 350 µM (not active).
For `COc1ccc(CCNc2nncc(O)n2)cc1OC`, the EC50 (cells [5]) was > 350 µM (not active) and the EC50 (cells [6]) was > 350 µM (not active).
For `Cc1ccc(C2=NS(=O)(=O)N(C)C(C(=O)NC3CCCC3)=C2)cc1`, the EC50 (cells [5]) was > 350 µM (not active) and the EC50 (cells [6]) was > 350 µM (not active).
In the case of `COC(=O)c1c(C)n(Cc2ccccc2)c2ccc(O)cc12`, the EC50 [2] is reported as > 120 µM (not active), the EC50 [3] is reported as > 120 µM (not active) and the EC50 [4] is reported as > 120 µM (not active).
With `O=C(O)c1cccc(N2CCCC2=O)c1` the EC50 (cells [5]) was > 350 µM (not active), the EC50 (cells [6]) was > 350 µM (not active) and the AC50 (Cytochrome P450 1A2) was 14.1 µM (inconclusive).
For `CCOC(=O)c1c(NC(=O)CN2C(=O)NC3(CCC(C)CC3)C2=O)sc(C)c1-c1ccc(C)cc1` (stereo unspecified), the EC50 (cells [5]) was > 350 µM (not active) and the EC50 (cells [6]) was 49.6 µM (active).
In the case of `c1coc(-c2nnc3n2C2(CCCC2)Cc2ccccc2-3)c1`, the EC50 [2] is reported as > 120 µM (not active), the EC50 [3] is reported as > 120 µM (not active) and the EC50 [4] is reported as > 120 µM (not active).
With `O=C1NC(=O)N(CCc2ccc(F)cc2)C(=O)/C1=C/NCCCn1ccnc1` the EC50 [7] was > 300 µM (not active) and the EC50 [8] was > 300 µM (not active).
For `N#CC1=C(N)OC2=C(C(=O)CCC2)C1c1ccc(OC(=O)N2CCOCC2)cc1` (stereo unspecified), the EC50 [7] was > 300 µM (not active) and the EC50 [8] was > 300 µM (not active).
With `O=C(Cn1ncc2c3ccccc3n(Cc3ccccc3)c2c1=O)NCCCN1CCCC1` the IC50 [1] was 13.2 µM (active).
For `CCCN(CC(=O)Nc1ccc(F)c(F)c1F)C(=O)Cn1c(=O)cnc2ccccc21`, the IC50 [1] was 12.3 µM (active).
For `Cc1cccn2c(=O)c3cc(C#N)/c(=N\C(=O)c4cccs4)n(CCCOC(C)C)c3nc12`, the EC50 [7] was 141 µM (inconclusive) and the EC50 [8] was > 300 µM (not active).
With `C/C(=N\NC(=O)c1nnn(-c2nonc2N)c1-c1cccs1)c1cccc(O)c1` the EC50 [7] was > 300 µM (not active) and the EC50 [8] was > 300 µM (not active).
